Reference: EP4596537A1, “NOVEL FLUORENE DERIVATIVE COMPOUND AND USE THEREOF” (JD Bioscience Inc., priority 2022, dated 2024)

Test system: PDHE1α S293
Assay: In vitro PDH S293 phosphorylation inhibition (Western blot) in HEK293 cells
Assay type: cell-based, human
Conditions: 5 hours, at 1 µM
Protocol: HEK293 cells, which are human embryonic kidney cells, were seeded at a density of 2 × 10^6 in a 60 mm dish, and cultured for 24 hours. After replacing the medium with a medium comprising 0.5% FBS, the compounds prepared according to Examples 1 to 54 were treated at various concentrations. 5 hours later, the cells were scraped off and collected into a 15 mL conical tube and centrifuged at 1500 rpm for 10 minutes. The supernatant was discarded, the resultant was washed with 1× PBS, and transferred to a 1.5 mL e-tube, followed by centrifugation at 10,000 rpm for 5 minutes. The supernatant was discarded again, a lysis buffer was added, and the cells were lysed on ice for 30 minutes. The cells were vortexed every 10 minutes to completely lyse, and centrifuged again at 10,000 rpm for 15 minutes at 4°C, and the supernatant was collected. The protein in the supernatant was quantified using BCA technique, and the sample buffer was added to 20 µg of protein and allowed to react at 70°C for 5 minutes. The expression of PDHE1α S232, S293, S300, and total PDHE1α proteins was detected by Western blot, and the resulting PDH S293 phosphorylation inhibition is shown in Table 6. […]

Question: How did the “PDH S293 phosphorylation inhibition” value turn out when “N'-(3-chloro-5-(trifluoromethyl)pyridin-2-yl)-2-(4-(2-fluoro-9-hydroxy-9-(trifluoromethyl)-9H-fluoren-4-yl)-1H-pyrazol-1-yl)propanehydrazide [Example 32]” was run?
Answer: The value was “++ (50% or more of PHDE1α S293 expression inhibition rate at 1 µM)”.

Same assay, conditions: Homo sapiens, 5 hours

Question: Which inhibition at 1 µM does the source give for `COc1cc(-c2cnn(C(C)C(=O)NNc3cccnc3)c2)c2c(c1)C(O)(C(F)(F)F)c1ccccc1-2` (stereo not shown) [Example 31, 2-(4-(9-hydroxy-2-methoxy-9-(trifluoromethyl)-9H-fluoren-4-yl)-1H-pyrazol-1-yl)-N'-(pyridin-3-yl)propanehydrazide] here?
Answer: The inhibition at 1 µM was no less than 50%.

Question: Which inhibition at 1 µM does the source give for `COc1cc(-c2cnn(C(C)C(=O)NNc3ccc(F)cc3)c2)c2c(c1)C(O)(C(F)(F)F)c1ccccc1-2` (stereo not shown) [Example 2, N'-(4-fluorophenyl)-2-(4-(9-hydroxy-2-methoxy-9-(trifluoromethyl)-9H-fluoren-4-yl)-1H-pyrazol-1-yl)propanehydrazide] here?
Answer: The inhibition at 1 µM was no less than 50%.

Question: How did the inhibition at 1 µM turn out when `COc1cc(-c2cnn(C(C)C(=O)NNc3cnccn3)c2)c2c(c1)C(O)(C(F)(F)F)c1ccccc1-2` (stereo not shown) [Example 25, 2-(4-(9-hydroxy-2-methoxy-9-(trifluoromethyl)-9H-fluoren-4-yl)-1H-pyrazol-1-yl)-N'-(pyrazin-2-yl)propanehydrazide] was run?
Answer: The inhibition at 1 µM was no less than 50%.

Question: Which inhibition at 1 µM does the source give for `CC(C(=O)NNc1ccc(C(F)(F)F)cn1)n1cc(-c2cc(F)cc3c2-c2ccccc2C3(O)C(F)(F)F)cn1` (stereo not shown) [Example 26, 2-(4-(2-fluoro-9-hydroxy-9-(trifluoromethyl)-9H-fluoren-4-yl)-1H-pyrazol-1-yl)-N'-(5-(trifluoromethyl)pyridin-2-yl)propanehydrazide] here?
Answer: The inhibition at 1 µM was no less than 50%.

Question: `CC(C(=O)NNc1ncccn1)n1cc(-c2cc(F)cc3c2-c2ccccc2C3(O)C(F)(F)F)cn1` (stereo not shown) [Example 28, 2-(4-(2-fluoro-9-hydroxy-9-(trifluoromethyl)-9H-fluoren-4-yl)-1H-pyrazol-1-yl)-N'-(pyrimidin-2-yl)propanehydrazide] was tested. Which inhibition at 1 µM did it give?
Answer: The inhibition at 1 µM was no less than 50%.

Question: How did the inhibition at 1 µM turn out when `CC(C(=O)NNc1ccnc2ccccc12)n1cc(-c2cc(F)cc3c2-c2ccccc2C3(O)C(F)(F)F)cn1` (stereo not shown) [Example 36, 2-(4-(2-fluoro-9-hydroxy-9-(trifluoromethyl)-9H-fluoren-4-yl)-1H-pyrazol-1-yl)-N'-(quinolin-4-yl)propanehydrazide] was run?
Answer: Its inhibition at 1 µM is no less than 50%.

Question: Which inhibition at 1 µM does the source give for `CC(C(=O)NNc1cnc2ccccc2n1)n1cc(-c2cc(F)cc3c2-c2ccccc2C3(O)C(F)(F)F)cn1` (stereo not shown) [Example 37, 2-(4-(2-fluoro-9-hydroxy-9-(trifluoromethyl)-9H-fluoren-4-yl)-1H-pyrazol-1-yl)-N'-(quinoxalin-2-yl)propanehydrazide] here?
Answer: The inhibition at 1 µM was no less than 50%.

Question: `COc1cc(-c2cnn(C(C)C(=O)NN3CCCCC3)c2)c2c(c1)C(O)(C(F)(F)F)c1ccccc1-2` (stereo not shown) [Example 52, 2-(4-(9-hydroxy-2-methoxy-9-(trifluoromethyl)-9H-fluoren-4-yl)-1H-pyrazol-1-yl)-N-(piperidin-1-yl)propanamide] was tested. Which inhibition at 1 µM did it give?
Answer: The inhibition at 1 µM was no less than 50%.

Question: Which inhibition at 1 µM does the source give for `CC(C(=O)NNc1cccnc1)n1cc(-c2cc(F)cc3c2-c2ccccc2C3(O)C(F)(F)F)cn1` (stereo not shown) [Example 30, 2-(4-(2-fluoro-9-hydroxy-9-(trifluoromethyl)-9H-fluoren-4-yl)-1H-pyrazol-1-yl)-N'-(pyridin-3-yl)propanehydrazide] here?
Answer: Its inhibition at 1 µM is no less than 50%.

Question: How did the inhibition at 1 µM turn out when `CC(C(=O)NNc1cnccn1)n1cc(-c2cc(F)cc3c2-c2ccccc2C3(O)C(F)(F)F)cn1` (stereo not shown) [Example 24, 2-(4-(2-fluoro-9-hydroxy-9-(trifluoromethyl)-9H-fluoren-4-yl)-1H-pyrazol-1-yl)-N'-(pyrazin-2-yl)propanehydrazide] was run?
Answer: Its inhibition at 1 µM is no less than 50%.

Question: Which inhibition at 1 µM does the source give for `CC(C(=O)NNc1ccccn1)n1cc(-c2cc(F)cc3c2-c2ccccc2C3(O)C(F)(F)F)cn1` (stereo not shown) [Example 8, 2-(4-(2-fluoro-9-hydroxy-9-(trifluoromethyl)-9H-fluoren-4-yl)-1H-pyrazol-1-yl)-N'-(pyridin-2-yl)propanehydrazide] here?
Answer: The inhibition at 1 µM was no less than 80%.

Question: For `CC(C(=O)NNc1ccc(Cl)cc1)n1cc(-c2cc(F)cc3c2-c2ccccc2C3(O)C(F)(F)F)cn1` (stereo not shown) [Example 7, N'-(4-chlorophenyl)-2-(4-(2-fluoro-9-hydroxy-9-(trifluoromethyl)-9H-fluoren-4-yl)-1H-pyrazol-1-yl)propanehydrazide], which inhibition at 1 µM is on record?
Answer: Its inhibition at 1 µM is no less than 50%.

Question: For `O=C(NNc1ccc(F)cc1)C(CC1CCCCC1)n1cc(-c2cc(F)cc3c2-c2ccccc2C3(O)C(F)(F)F)cn1` (stereo not shown) [Example 46, 3-cyclohexyl-2-(4-(2-fluoro-9-hydroxy-9-(trifluoromethyl)-9H-fluoren-4-yl)-1H-pyrazol-1-yl)-N'-(4-fluorophenyl)propanehydrazide], which inhibition at 1 µM is on record?
Answer: The inhibition at 1 µM was no less than 50%.

Question: How did the inhibition at 1 µM turn out when `C[C@H](C(=O)NNc1ccc(F)cc1)n1cc(-c2cc(F)cc3c2-c2ccccc2[C@]3(O)C(F)(F)F)cn1` [Example 49, (R)-2-(4-((R)-2-fluoro-9-hydroxy-9-(trifluoromethyl)-9H-fluoren-4-yl)-1H-pyrazol-1-yl)-N'-(4-fluorophenyl)propanehydrazide] was run?
Answer: Its inhibition at 1 µM is no less than 50%.

Question: For `COc1cc(-c2cnn(C(C)C(=O)NNc3ncccn3)c2)c2c(c1)C(O)(C(F)(F)F)c1ccccc1-2` (stereo not shown) [Example 29, 2-(4-(9-hydroxy-2-methoxy-9-(trifluoromethyl)-9H-fluoren-4-yl)-1H-pyrazol-1-yl)-N'-(pyrimidin-2-yl)propanehydrazide], which inhibition at 1 µM is on record?
Answer: The inhibition at 1 µM was no less than 50%.

Question: With `C[C@@H](C(=O)NNc1ccc(F)cc1)n1cc(-c2cc(F)cc3c2-c2ccccc2[C@@]3(O)C(F)(F)F)cn1` [Example 48, (S)-2-(4-((S)-2-fluoro-9-hydroxy-9-(trifluoromethyl)-9H-fluoren-4-yl)-1H-pyrazol-1-yl)-N'-(4-fluorophenyl)propanehydrazide] as the compound, how does the inhibition at 1 µM read?
Answer: Its inhibition at 1 µM is no less than 50%.

Question: With `COc1cc(-c2cnn(C(C)C(=O)NNc3cccc4ccccc34)c2)c2c(c1)C(O)(C(F)(F)F)c1ccccc1-2` (stereo not shown) [Example 11, 2-(4-(9-hydroxy-2-methoxy-9-(trifluoromethyl)-9H-fluoren-4-yl)-1H-pyrazol-1-yl)-N'-(naphthalen-1-yl)propanehydrazide] as the compound, how does the inhibition at 1 µM read?
Answer: Its inhibition at 1 µM is no less than 50%.

Question: With `COc1cc(-c2cnn(C(C)C(=O)NNc3ccccn3)c2)c2c(c1)C(O)(C(F)(F)F)c1ccccc1-2` (stereo not shown) [Example 17, 2-(4-(9-hydroxy-2-methoxy-9-(trifluoromethyl)-9H-fluoren-4-yl)-1H-pyrazol-1-yl)-N'-(pyridin-2-yl)propanehydrazide] as the compound, how does the inhibition at 1 µM read?
Answer: The inhibition at 1 µM was no less than 50%.

Question: With `COc1cc(-c2cnn(C(C)C(=O)NNc3ccc(S(C)(=O)=O)cc3)c2)c2c(c1)C(O)(C(F)(F)F)c1ccccc1-2` (stereo not shown) [Example 23, 2-(4-(9-hydroxy-2-methoxy-9-(trifluoromethyl)-9H-fluoren-4-yl)-1H-pyrazol-1-yl)-N'-(4-(methylsulfonyl)phenyl)propanehydrazide] as the compound, how does the inhibition at 1 µM read?
Answer: The inhibition at 1 µM was no less than 50%.

Question: For `CC(C(=O)NNc1ccccc1Cl)n1cc(-c2cc(F)cc3c2-c2ccccc2C3(O)C(F)(F)F)cn1` (stereo not shown) [Example 6, N'-(2-chlorophenyl)-2-(4-(2-fluoro-9-hydroxy-9-(trifluoromethyl)-9H-fluoren-4-yl)-1H-pyrazol-1-yl)propanehydrazide], which inhibition at 1 µM is on record?
Answer: The inhibition at 1 µM was no less than 50%.

Question: How did the inhibition at 1 µM turn out when `CC(C(=O)NN1CCCCCC1)n1cc(-c2cc(F)cc3c2-c2ccccc2C3(O)C(F)(F)F)cn1` (stereo not shown) [Example 54, N-(azepan-1-yl)-2-(4-(2-fluoro-9-hydroxy-9-(trifluoromethyl)-9H-fluoren-4-yl)-1H-pyrazol-1-yl)propanamide] was run?
Answer: Its inhibition at 1 µM is no less than 50%.

Question: `COc1cc(-c2cnn(C(C)C(=O)NNc3ccc(C(=O)OC(C)(C)C)cn3)c2)c2c(c1)C(O)(C(F)(F)F)c1ccccc1-2` (stereo not shown) [Example 15, tert-butyl 6-(2-(2-(4-(9-hydroxy-2-methoxy-9-(trifluoromethyl)-9H-fluoren-4-yl)-1H-pyrazol-1-yl)propanoyl)hydrazinyl)nicotinate] was tested. Which inhibition at 1 µM did it give?
Answer: The inhibition at 1 µM was no less than 50%.

Question: For `CC(C(=O)NNc1ccc(C(=O)O)cn1)n1cc(-c2cc(F)cc3c2-c2ccccc2C3(O)C(F)(F)F)cn1` (stereo not shown) [Example 14, 6-(2-(2-(4-(2-fluoro-9-hydroxy-9-(trifluoromethyl)-9H-fluoren-4-yl)-1H-pyrazol-1-yl)propanoyl)hydrazinyl)nicotinic acid], which inhibition at 1 µM is on record?
Answer: The inhibition at 1 µM was no less than 50%.

Question: For `CC(C(=O)NNc1nc2ccccc2s1)n1cc(-c2cc(F)cc3c2-c2ccccc2C3(O)C(F)(F)F)cn1` (stereo not shown) [Example 42, N'-(benzo[d]thiazol-2-yl)-2-(4-(2-fluoro-9-hydroxy-9-(trifluoromethyl)-9H-fluoren-4-yl)-1H-pyrazol-1-yl)propanehydrazide], which inhibition at 1 µM is on record?
Answer: The inhibition at 1 µM was no less than 50%.

Question: Which inhibition at 1 µM does the source give for `CC(C)(C(=O)NNc1ccc(F)cc1)n1cc(-c2cc(F)cc3c2-c2ccccc2C3(O)C(F)(F)F)cn1` (stereo not shown) [Example 47, 2-(4-(2-fluoro-9-hydroxy-9-(trifluoromethyl)-9H-fluoren-4-yl)-1H-pyrazol-1-yl)-N'-(4-fluorophenyl)-2-methylpropanehydrazide] here?
Answer: Its inhibition at 1 µM is no less than 50%.

Question: `CC(C)C(C(=O)NNc1ccc(F)cc1)n1cc(-c2cc(F)cc3c2-c2ccccc2C3(O)C(F)(F)F)cn1` (stereo not shown) [Example 44, 2-(4-(2-fluoro-9-hydroxy-9-(trifluoromethyl)-9H-fluoren-4-yl)-1H-pyrazol-1-yl)-N'-(4-fluorophenyl)-3-methylbutanehydrazide] was tested. Which inhibition at 1 µM did it give?
Answer: Its inhibition at 1 µM is no less than 50%.

Question: How did the inhibition at 1 µM turn out when `CC(C(=O)NNc1ccc(S(C)(=O)=O)cc1)n1cc(-c2cc(F)cc3c2-c2ccccc2C3(O)C(F)(F)F)cn1` (stereo not shown) [Example 22, 2-(4-(2-fluoro-9-hydroxy-9-(trifluoromethyl)-9H-fluoren-4-yl)-1H-pyrazol-1-yl)-N'-(4-(methylsulfonyl)phenyl)propanehydrazide] was run?
Answer: The inhibition at 1 µM was no less than 50%.
